Entries after “also recorded” stand apart in the source; their conditions may differ.

The subject of one test is Will-2 cells. Briefly: H3K27Me3 levels in DLBCL cells. It counts as cell-based.
Test [1] concerns T47D cells. Kind of test: H3Cit26 and H3K27Me3 levels after estradiol stimulation. The class given is cell-based.
Another test has as its system MCF7 cells. Described as above. The class given is cell-based.
The test system of test [2] is T47D cells. It counts as cell-based.
Test [3] deals with PAD. The following applies: ref [46]; cited from earlier work.
Another test concerns PRC2. The following applies: F-Amidine 1 mM.
Test [4] has as its system PAD. Kind of test: PAD inhibition by F-Amidine. It counts as biochemical. As to conditions: F-Amidine 1 mM, 15 min.
Another test relates to UTX and JMJD3. Kind of test: Co-immunoprecipitation with PAD2 in MCF7 nuclear extracts. It counts as binding. The following applies: MCF7 nuclear extracts post E2 stimulation.
In a further test the test system is PRC2 complex. Briefly: PRC2 methyltransferase activity on histone H3 after PAD preincubation. It counts as biochemical, human. The following applies: PAD preincubation with H3; Figure S1A and B.
Another test relates to ERα. Briefly: Co-immunoprecipitation of PAD2 and ERα in MCF7 nuclear extracts. The class given is binding. The following applies: MCF7 nuclear extracts post E2 stimulation.

As to `N=C(CF)NCCC[C@H](NC(=O)c1ccc(-c2ccccc2)cc1)c1nc2ccccc2[nH]1` [BB-F-Amidine, N1-[1,4′-Phenyl]benzoyl-N5-(2-fluoro-1-inimoethyl)-1-(1H-benzo[d]imidazole-2-yl)-L-ornithine amide], the “H3K27Me3 increase by PAD inhibitor in EZH2 knockdown cells” value in the test with Will-2 cells (EZH2 knockdown cells treated with PAD inhibitor) was “attenuated”. In the test with Will-2 cells (PAD inhibitor treatment, DLBCL line (Will-2)), the “increase in H3K27Me3 levels” value came out at 4 fold.

As to `C[C@]12CC[C@@H]3c4ccc(O)cc4CC[C@H]3[C@@H]1CC[C@@H]2O` [E2, 17-β-estradiol], the H3K27Me3 level result with T47D cells [1] (100 nM, 1 h) is “modest reduction in H3K27Me3 levels”; in the test on MCF7 cells (100 nM, 4 h), “modest reduction in H3K27Me3 levels”. Further, the H3Cit26 signal result in the test on T47D cells [1] (E2 stimulation, after 2 h) is recorded as “greatly reduced”; in the test with MCF7 cells (E2 stimulation, after 2 h), “lost”.

As to `CCN(c1cc(-c2ccc(CN3CCOCC3)cc2)cc(C(=O)NCc2c(C)cc(C)[nH]c2=O)c1C)C1CCOCC1` [EPZ-6438], the “effect on baseline transcription before estradiol stimulation” value with T47D cells [2] (5 μM EPZ-6438, 5 days, absence of estradiol) was “basal transcriptional level is increased relative to control cells; also recorded: increased baseline transcription prior to E2 stimulation”. Further, in the test on Will-2 cells (PAD2 knockdown cells treated with EZH2 inhibitor), the “effect on H3K27Me3 increase of PAD2 knockdown cells” value is given as “attenuated”.

With `N=C(CF)NCCC[C@H](NC(=O)c1ccccc1)C(N)=O` [F-Amidine, N-α-benzoyl-N5-(2-fluoro-1-iminoethyl)-L-ornithine amide], in the test with PAD [3], the PAD inhibition character entry is given as “highly selective, irreversible pan-PAD inhibitor”. Further, the “effect on methyltransferase activity of PRC2” value in the test with PRC2 is “no effect on the methyltransferase activity of PRC2”. Further, the “inhibition of PAD reaction” value in the test on PAD [4] is reported as “completely inhibits the PAD reaction”.

Take `CCOC(=O)CCNc1cc(N2CCc3ccccc3CC2)nc(-c2ccccn2)n1` [GSK-J4]: the “effect on E2-stimulated transcription of ERα-target genes (e.g. GDNF and KRT13)” value in the test with T47D cells [2] (400 nM GSK-J4, 5 days, baseline vs 60 min E2) is “downregulated”.

Take PAD2: Protein Arginine Deiminase type-2: the “co-immunoprecipitation with UTX and JMJD3” value with UTX and JMJD3 was “co-immunoprecipitates UTX and JMJD3”. Besides, in the test with PRC2 complex, the “effect on PRC2 catalyzed methylation, time and dose dependence” value is “decrease PRC2 catalyzed methylation in a time- and dose-dependent manner”. Moreover, in the test with ERα, the “co-immunoprecipitation of PAD2 and ERα” value is “PAD2 and ERα co-immunoprecipitate”.

PAD4: Protein Arginine Deiminase type-4: in the test on PRC2 complex, the “effect on PRC2 catalyzed methylation, time and dose dependence” value was “decrease PRC2 catalyzed methylation in a time- and dose-dependent manner”.

The record behind these values is PMC5536191 (ACS chemical biology, 2017).
